# Measurements: ChEMBL document CHEMBL4507259 (2021)
# Key:
# [1] = biological target: CREB-binding protein/Histone acetyltransferase p300 (Homo sapiens, UniProt Q09472+Q92793); assay: Inhibition of H3K27Ac (DU-145); format: cell-based
# [2] = biological target: Endothelin receptor type B (Homo sapiens) (UniProt P24530); assay: ETB (h) CEREP ligand profiling; conditions: filed as agonist, Compound concentration 10.0 uM
# [3] = biological target: GABA-A receptor; alpha-1/beta-2/gamma-2 (Homo sapiens) (UniProt P14867+P47870+P18507); assay: GABAA1 (h) (alpha 1,beta 2,gamma 2) CEREP ligand profiling; format: protein-complex assay; conditions: filed as agonist, Compound concentration 10.0 uM
# [4] = biological target: Calcitonin-gene-related peptide receptor, CALCRL/RAMP1 (Homo sapiens) (UniProt O60894+Q16602); assay: Calcitonin Gene-Related Peptide CGRP1 CEREP ligand profiling; format: protein-complex assay; conditions: Compound concentration 10.0 uM
# [5] = biological target: Prostaglandin G/H synthase 1 (Homo sapiens) (UniProt P23219); assay: COX1(h) CEREP ligand profiling; conditions: Compound concentration 10.0 uM
# [6] = biological target: cGMP-inhibited 3',5'-cyclic phosphodiesterase 3A (Homo sapiens) (UniProt Q14432); assay: PDE3A (h) CEREP ligand profiling; conditions: Compound concentration 10.0 uM
# [7] = biological target: Activin receptor type-2A (Homo sapiens) (UniProt P27037); conditions: Compound concentration 1000.0 nM
# [8] = biological target: Cyclin-dependent kinase-like 3 (Homo sapiens) (UniProt Q8IVW4); conditions: Compound concentration 1000.0 nM
# [9] = biological target: Histone acetyltransferase KAT2B (Homo sapiens) (UniProt Q92831); assay: PCAF (HAT) CEREP ligand profiling; conditions: Compound concentration 10.0 uM
# [10] = biological target: Histone acetyltransferase type B catalytic subunit (Homo sapiens) (UniProt O14929); assay: HAT1 (HAT) CEREP ligand profiling; conditions: Compound concentration 10.0 uM
# [11] = biological target: Histone acetyltransferase KAT5 (Homo sapiens) (UniProt Q92993); assay: TIP60 (HAT) CEREP ligand profiling; conditions: Compound concentration 10.0 uM
# NCI-H2444 = assay: H2444 cell line Proliferation assay; format: functional, Homo sapiens; conditions: Compound concentration 10 uM; time 3 day
# NCI-H661 = assay: H661 cell line Proliferation assay; format: functional, Homo sapiens; conditions: Compound concentration 10 uM; time 3 day
# MeWo = assay: MeWo cell line Proliferation assay; format: functional, Homo sapiens; conditions: Compound concentration 10 uM; time 5 day
# G-361 = assay: G361 cell line Proliferation assay; format: functional, Homo sapiens; conditions: Compound concentration 10 uM; time 5 day
# SK-MEL-2 = assay: SKMEL2 cell line Proliferation assay; format: functional, Homo sapiens; conditions: Compound concentration 10 uM; time 5 day
# NCI-H209 = assay: H209 cell line Proliferation assay; format: functional, Homo sapiens; conditions: Compound concentration 10 uM; time 4 day
# NCI-H1930 = assay: H1930 cell line Proliferation assay; format: functional, Homo sapiens; conditions: Compound concentration 10 uM; time 4 day
# MDA-MB-468 = assay: MDA_MB_468 cell line Proliferation assay; format: functional, Homo sapiens; conditions: Compound concentration 10 uM; time 5 day
# MDA-MB-157 = assay: MDA_MB_157 cell line Proliferation assay; format: functional, Homo sapiens; conditions: Compound concentration 10 uM; time 5 day
# 4T1 = assay: 4T1 (mouse) cell line Proliferation assay; format: functional; conditions: Compound concentration 10 uM; time 5 day
# HCC70 = assay: HCC70 cell line Proliferation assay; format: functional, Homo sapiens; conditions: Compound concentration 10 uM; time 5 day
# HCC1187 = assay: HCC1187 cell line Proliferation assay; format: functional, Homo sapiens; conditions: Compound concentration 10 uM; time 5 day
# Mino = assay: Mino cell line Proliferation assay; format: functional, Homo sapiens; conditions: Compound concentration 10 uM; time 3 day
# SUD4 = assay: SuDHL4 cell line Proliferation assay; format: functional, Homo sapiens; conditions: Compound concentration 10 uM; time 3 day
# OCI-Ly1 = assay: OCI Ly1 cell line Proliferation assay; format: functional, Homo sapiens; conditions: Compound concentration 10 uM; time 3 day
# OCI-Ly7 = assay: OCI Ly7 cell line Proliferation assay; format: functional, Homo sapiens; conditions: Compound concentration 10 uM; time 3 day
# U2932 = assay: U2932 cell line Proliferation assay; format: functional, Homo sapiens; conditions: Compound concentration 10 uM; time 3 day
# SKM-1 = assay: SKM-1 cell line Proliferation assay; format: functional, Homo sapiens; conditions: Compound concentration 10 uM; time 3 day
# EOL1 = assay: EOL-1 cell line Proliferation assay; format: functional, Homo sapiens; conditions: Compound concentration 10 uM; time 3 day
# KARPAS-299 = assay: KARPAS-299 cell line Proliferation assay; format: functional, Homo sapiens; conditions: Compound concentration 10 uM; time 3 day
# [12] = biological target: Sodium-dependent noradrenaline transporter (Homo sapiens) (UniProt P23975); conditions: Compound concentration 10.0 uM
# Sodium-dependent noradrenaline transporter (Homo sapiens), sequence (P23975 whole entry): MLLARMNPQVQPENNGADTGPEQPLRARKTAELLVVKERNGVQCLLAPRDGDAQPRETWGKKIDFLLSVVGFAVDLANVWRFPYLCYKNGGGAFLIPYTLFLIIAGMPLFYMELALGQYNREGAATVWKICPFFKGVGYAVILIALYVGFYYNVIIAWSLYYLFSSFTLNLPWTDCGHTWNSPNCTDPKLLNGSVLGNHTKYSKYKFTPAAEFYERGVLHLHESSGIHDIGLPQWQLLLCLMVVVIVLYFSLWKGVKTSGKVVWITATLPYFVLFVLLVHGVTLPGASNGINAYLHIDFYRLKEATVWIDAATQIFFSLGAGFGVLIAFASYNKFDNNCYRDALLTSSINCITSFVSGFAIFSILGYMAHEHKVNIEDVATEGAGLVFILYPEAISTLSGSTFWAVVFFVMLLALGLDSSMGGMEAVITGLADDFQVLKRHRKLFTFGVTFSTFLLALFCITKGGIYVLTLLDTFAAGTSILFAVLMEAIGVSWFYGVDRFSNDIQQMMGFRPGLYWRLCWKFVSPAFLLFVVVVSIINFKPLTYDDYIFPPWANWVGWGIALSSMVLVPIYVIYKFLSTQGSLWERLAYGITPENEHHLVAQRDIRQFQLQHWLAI
# Endothelin receptor type B (Homo sapiens), sequence (P24530 whole entry): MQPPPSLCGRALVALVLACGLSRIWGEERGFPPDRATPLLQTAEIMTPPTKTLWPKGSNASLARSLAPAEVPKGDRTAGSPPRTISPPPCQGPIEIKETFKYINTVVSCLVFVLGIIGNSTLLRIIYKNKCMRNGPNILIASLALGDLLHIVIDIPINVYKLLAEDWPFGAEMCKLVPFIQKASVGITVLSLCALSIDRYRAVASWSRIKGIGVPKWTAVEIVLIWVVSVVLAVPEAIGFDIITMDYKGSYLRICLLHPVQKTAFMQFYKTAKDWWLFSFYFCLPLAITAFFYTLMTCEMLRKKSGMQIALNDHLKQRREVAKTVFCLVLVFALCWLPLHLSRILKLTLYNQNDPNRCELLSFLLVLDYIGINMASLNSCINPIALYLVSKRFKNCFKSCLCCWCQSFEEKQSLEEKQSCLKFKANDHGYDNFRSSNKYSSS
# Histone acetyltransferase KAT2B (Homo sapiens), sequence (Q92831 whole entry, looked up): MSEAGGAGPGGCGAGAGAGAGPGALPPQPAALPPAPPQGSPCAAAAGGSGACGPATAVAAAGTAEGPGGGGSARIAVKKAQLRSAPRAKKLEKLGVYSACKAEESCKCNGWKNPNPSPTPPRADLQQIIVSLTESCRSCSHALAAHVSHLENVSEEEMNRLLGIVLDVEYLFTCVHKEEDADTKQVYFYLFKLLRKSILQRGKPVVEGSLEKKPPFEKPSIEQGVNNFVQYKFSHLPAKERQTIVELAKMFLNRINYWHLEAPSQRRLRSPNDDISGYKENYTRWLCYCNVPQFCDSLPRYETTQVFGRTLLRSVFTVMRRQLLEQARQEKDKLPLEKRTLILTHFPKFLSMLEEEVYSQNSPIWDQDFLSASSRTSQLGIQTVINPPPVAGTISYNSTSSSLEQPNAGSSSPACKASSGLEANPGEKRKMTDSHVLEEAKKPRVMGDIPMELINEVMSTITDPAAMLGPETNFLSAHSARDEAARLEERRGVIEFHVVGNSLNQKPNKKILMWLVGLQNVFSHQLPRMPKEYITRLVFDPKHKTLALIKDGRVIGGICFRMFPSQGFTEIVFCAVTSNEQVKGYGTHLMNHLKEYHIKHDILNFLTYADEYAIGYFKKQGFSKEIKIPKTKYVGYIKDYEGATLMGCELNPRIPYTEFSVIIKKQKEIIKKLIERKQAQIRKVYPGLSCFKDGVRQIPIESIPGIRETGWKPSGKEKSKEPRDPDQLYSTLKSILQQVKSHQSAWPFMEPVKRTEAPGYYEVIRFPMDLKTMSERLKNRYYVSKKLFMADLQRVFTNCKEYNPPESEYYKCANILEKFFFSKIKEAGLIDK
# Cyclin-dependent kinase-like 3 (Homo sapiens), sequence (Q8IVW4 whole entry, looked up): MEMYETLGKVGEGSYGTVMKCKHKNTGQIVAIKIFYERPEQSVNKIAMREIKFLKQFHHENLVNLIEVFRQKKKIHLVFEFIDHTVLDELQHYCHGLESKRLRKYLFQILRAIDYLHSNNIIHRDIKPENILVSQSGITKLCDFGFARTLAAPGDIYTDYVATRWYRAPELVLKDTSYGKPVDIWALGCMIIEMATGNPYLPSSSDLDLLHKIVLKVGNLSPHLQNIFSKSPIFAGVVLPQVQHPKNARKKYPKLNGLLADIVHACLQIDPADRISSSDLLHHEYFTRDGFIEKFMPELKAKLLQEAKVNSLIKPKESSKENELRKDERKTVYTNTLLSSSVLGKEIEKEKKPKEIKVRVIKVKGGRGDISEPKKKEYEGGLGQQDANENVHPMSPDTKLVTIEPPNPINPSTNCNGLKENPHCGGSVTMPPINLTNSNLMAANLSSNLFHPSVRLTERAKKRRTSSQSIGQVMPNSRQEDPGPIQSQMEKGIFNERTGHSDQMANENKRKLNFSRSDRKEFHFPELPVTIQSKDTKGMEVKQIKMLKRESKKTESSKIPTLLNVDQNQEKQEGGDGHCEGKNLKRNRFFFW
# cGMP-inhibited 3',5'-cyclic phosphodiesterase 3A (Homo sapiens), sequence (Q14432 whole entry): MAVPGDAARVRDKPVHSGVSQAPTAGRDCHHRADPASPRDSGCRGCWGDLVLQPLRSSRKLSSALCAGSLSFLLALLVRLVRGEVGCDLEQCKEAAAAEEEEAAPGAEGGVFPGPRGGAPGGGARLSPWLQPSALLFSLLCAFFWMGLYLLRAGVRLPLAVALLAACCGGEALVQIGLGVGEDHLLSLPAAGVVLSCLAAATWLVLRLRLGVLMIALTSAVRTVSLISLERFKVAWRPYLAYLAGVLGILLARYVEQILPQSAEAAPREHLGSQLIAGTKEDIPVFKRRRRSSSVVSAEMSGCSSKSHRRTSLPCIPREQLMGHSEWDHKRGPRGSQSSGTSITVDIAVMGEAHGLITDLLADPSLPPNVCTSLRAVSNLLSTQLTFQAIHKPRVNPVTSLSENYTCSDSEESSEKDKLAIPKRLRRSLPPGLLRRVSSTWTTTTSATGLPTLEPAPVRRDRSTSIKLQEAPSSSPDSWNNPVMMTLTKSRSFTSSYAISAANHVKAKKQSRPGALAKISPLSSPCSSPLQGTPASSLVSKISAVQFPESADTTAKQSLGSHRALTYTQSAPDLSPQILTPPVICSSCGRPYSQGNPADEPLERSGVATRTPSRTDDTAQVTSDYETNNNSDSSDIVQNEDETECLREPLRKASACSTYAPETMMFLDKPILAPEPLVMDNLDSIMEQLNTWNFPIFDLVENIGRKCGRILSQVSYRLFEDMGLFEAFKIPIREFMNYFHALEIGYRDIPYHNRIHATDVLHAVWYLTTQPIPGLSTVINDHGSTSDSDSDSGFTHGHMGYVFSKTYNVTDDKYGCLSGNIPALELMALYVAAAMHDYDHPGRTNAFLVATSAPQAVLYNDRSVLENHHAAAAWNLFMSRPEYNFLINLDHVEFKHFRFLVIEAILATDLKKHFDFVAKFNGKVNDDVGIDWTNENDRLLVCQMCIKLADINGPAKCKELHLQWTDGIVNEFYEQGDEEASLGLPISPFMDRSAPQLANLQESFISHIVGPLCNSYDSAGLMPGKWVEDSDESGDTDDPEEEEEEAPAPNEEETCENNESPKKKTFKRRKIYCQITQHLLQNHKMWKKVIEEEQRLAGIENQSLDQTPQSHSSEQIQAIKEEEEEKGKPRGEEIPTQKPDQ
# Histone acetyltransferase type B catalytic subunit (Homo sapiens), sequence (O14929 2-419 limits assumed): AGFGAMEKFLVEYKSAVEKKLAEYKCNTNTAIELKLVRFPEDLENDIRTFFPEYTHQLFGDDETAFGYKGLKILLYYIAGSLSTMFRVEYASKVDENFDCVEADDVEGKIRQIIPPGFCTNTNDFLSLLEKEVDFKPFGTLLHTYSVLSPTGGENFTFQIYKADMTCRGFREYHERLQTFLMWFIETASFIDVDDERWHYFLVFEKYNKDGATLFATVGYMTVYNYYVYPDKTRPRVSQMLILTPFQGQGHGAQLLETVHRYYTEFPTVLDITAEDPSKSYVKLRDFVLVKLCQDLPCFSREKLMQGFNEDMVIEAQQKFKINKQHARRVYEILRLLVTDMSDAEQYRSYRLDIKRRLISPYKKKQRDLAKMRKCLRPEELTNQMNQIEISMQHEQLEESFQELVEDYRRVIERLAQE
# Histone acetyltransferase KAT5 (Homo sapiens), sequence (Q92993 whole entry, looked up): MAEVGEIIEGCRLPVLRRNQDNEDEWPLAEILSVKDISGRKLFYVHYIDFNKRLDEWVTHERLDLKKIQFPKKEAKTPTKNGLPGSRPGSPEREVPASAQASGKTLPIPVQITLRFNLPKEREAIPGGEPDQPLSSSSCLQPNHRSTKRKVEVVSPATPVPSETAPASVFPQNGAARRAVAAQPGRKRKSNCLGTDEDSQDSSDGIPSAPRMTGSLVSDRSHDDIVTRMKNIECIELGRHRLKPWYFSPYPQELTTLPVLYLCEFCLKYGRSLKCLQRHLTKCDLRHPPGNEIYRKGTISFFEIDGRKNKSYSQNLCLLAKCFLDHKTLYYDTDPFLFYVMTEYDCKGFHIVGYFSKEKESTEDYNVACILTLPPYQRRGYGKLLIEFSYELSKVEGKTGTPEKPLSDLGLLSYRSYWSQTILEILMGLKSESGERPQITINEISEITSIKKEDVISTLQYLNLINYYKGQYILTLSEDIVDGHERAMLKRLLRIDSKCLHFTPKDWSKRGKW
structure (smiles),measurement,setting,value
CNC(=O)Nc1ccc2c(c1)[C@@]1(CC2)OC(=O)N(CC(=O)N(Cc2ccc(F)cc2)[C@@H](C)C(F)(F)F)C1=O [A-486],IC50,[1],> 10 µM
same,inhibition,[2],8%
same,inhibition,[3],0%
same,inhibition,[4],-10%
same,inhibition,[5],-5%
same,inhibition,[6],-1%
same,residual activity,[7],100%
same,residual activity,[8],92%
CNC(=O)Nc1ccc2c(c1)CC[C@@]21OC(=O)N(CC(=O)N(Cc2ccc(F)cc2)[C@@H](C)C(F)(F)F)C1=O [A-485],inhibition,[9],1%
same,inhibition,[10],-1.9%
same,inhibition,[11],-1.9%
same,Cell Proliferation EC50,NCI-H2444,5.918 µM
same,Cell Proliferation EC50,NCI-H661,7.664 µM
same,Cell Proliferation EC50,MeWo,2.427 µM
same,Cell Proliferation EC50,G-361,3.768 µM
same,Cell Proliferation EC50,SK-MEL-2,>10 µM
same,Cell Proliferation EC50,NCI-H209,0.4 µM
same,Cell Proliferation EC50,NCI-H1930,>10 µM
same,Cell Proliferation EC50,MDA-MB-468,0.3767 µM
same,Cell Proliferation EC50,MDA-MB-157,4.592 µM
same,Cell Proliferation EC50,4T1,>10 µM
same,Cell Proliferation EC50,HCC70,>10 µM
same,Cell Proliferation EC50,HCC1187,>10 µM
same,Cell Proliferation EC50,Mino,0.5322 µM
same,Cell Proliferation EC50,SUD4,0.7204 µM
same,Cell Proliferation EC50,OCI-Ly1,0.9405 µM
same,Cell Proliferation EC50,OCI-Ly7,1.813 µM
same,Cell Proliferation EC50,U2932,2.46 µM
same,Cell Proliferation EC50,SKM-1,1.34 µM
same,Cell Proliferation EC50,EOL1,>10 µM
same,Cell Proliferation EC50,KARPAS-299,>10 µM
same,inhibition,[12],-3.76%
